The conditions of experiment [1]: dose of AM-251 used in these experiments; Trang et al. Pain 2006; cited from earlier work.
For a further experiment, the system named is Sprague Dawley rats. As to the method: Experiments were performed in accordance with guidelines of the Canadian Council on Animal Care using protocols approved by the University Animal Care Committee. Adult male Sprague Dawley rats (200-250 grams) (Charles River, Quebec) were housed in separate cages and maintained on a 12 hour light/12 hour dark cycle with access to food and water ad libitum.
Animals were anaesthetized with halothane (4%) and implanted with an indwelling intrathecal catheter. A small puncture was made in the atlanto-occipital membrane and a polythene catheter (PE-10; 7.5 cm long) inserted caudally so that the tip rested on the lumbar enlargement of the spinal cord. The rostral end was exteriorized to facilitate drug administration. Surgical wounds were closed with sutures and animals allowed to recover for one week. Animals showing signs of forelimb or hindlimb paralysis were excluded from experiments. Drugs were injected in a 10 μl volume (i.t.) followed by 10 μl of 0.9% saline to flush the catheter.
Response to an acute thermal nociceptive stimulus was assessed in rats using the tail-flick test. Radiant heat was applied to the dorsal surface of the tail using an analgesic meter and the time latency for removal of the tail from the stimulus was recorded. […] A cutoff of 10 seconds was used in both studies to prevent tissue injury.
Response to an acute mechanical nociceptive stimulus was assessed using the paw-pressure test. Using an air-filled inverted syringe, pressure was gradually applied to the dorsal surface of the hindpaw until a paw withdrawal response was observed and the value (mmHg) recorded. A cut-off of 300 mmHg was used to prevent tissue injury.
Tail-flick and paw-pressure nociceptive tests were performed both before and 30 minutes after drug injection. […] Nociceptive testing was performed both before and 30 minutes after each injection.
The day following ED50 testing, spinal cords from animals were processed for CGRP immunohistochemical staining as described infra.
Tail-flick and paw-pressure values were converted to a maximum percentage effect (M.P.E.): M.P.E.=100×[post-drug response−baseline response]/[maximum response−baseline response]. Data in the figures are expressed as mean±s.e.mean. ED50 values were determined using a non-linear regression analysis (Prism 2, GraphPad Software Inc., San Diego, Calif., USA). Statistical significance (p<0.05) was determined using a one-way analysis of variance (ANOVA) followed by a Student Newman-Keuls post hoc test for multiple comparisons between groups.

Experiment [2] relates to CGRP-immunoreactive neurons in adult rat dorsal root ganglion cultures.
Protocol: In this method, rats were decapitated and DRGs removed aseptically from the cervical, thoracic, lumbar, and sacral regions of the spinal cord. […] DRGs were minced, digested with 0.25% collagenase (Calbiochem) in Ham's F12 Medium (GIBCO/BRL) for 90 minutes at 37° C., and then trypsinized (0.25%) (GIBCO/BRL) for 1.5 hours at 37° C. Next, the tissues were triturated with a 19 gauge syringe in Dulbecco's Modified Eagle Medium (DMEM, GIBCO/BRL) containing 1% HEPES buffer, penicillin/streptomycin (1:100), and 10% Fetal Bovine Serum (GIBCO/BRL). Samples were then centrifuged at 500 g for 10 minutes. The resulting pellet was resuspended with DMEM and filtered through a cell strainer (70 μm, Falcon). DRG cells were seeded in a poly-D-lysine coated 96-well culture plate (Falcon) at a density of 5×10^4 cells/well and incubated at 37° C. with 5% CO2 and 95% O2 for the duration of the experiment. […]
To examine the effects of drug treatment on CGRP-immunoreactivity in the cultured DRG cells, the number of CGRP immunopositive cells was counted using an inverted phase microscope (Olympus CX2). […] The field of view in which CGRP-IR cells were counted measured 1 mm^2. […]
For the cultured DRG studies, the mean±s.e.mean of CGRP-immunopositive cells was obtained from 4 wells per treatment group in each of 3 separate cell cultures. Data are expressed as a percent of saline control wells. […]
The mark [3] stands for this setting: i.t. morphine 15 μg, first injection, both tail-flick and paw-pressure test.

The structures appear in SMILES notation.

`Cc1c(C(=O)NN2CCCCC2)nn(-c2ccc(Cl)cc2Cl)c1-c1ccc(I)cc1` [AM-251, 1-(2,4-dichlorophenyl)-5-(4-iodophenyl)-4-methyl-N-1-piperidinyl-1H-pyrazole-3-carboxamide]: in experiment [1], the “effect on anandamide-induced antinociception” value is recorded as “selectively block” and the “influence on acute morphine-induced analgesia” value is “no influence”. For the same molecule, in the experiment with Sprague Dawley rats (AM-251 3.2 μg administered alone over 5 days), the “effect on basal nociceptive responses” value is “did not have an effect”. Also, the “morphine ED50 value versus chronic saline treatment” value in the experiment with Sprague Dawley rats (AM-251 3.2 μg alone for 5 days) is listed as “did not significantly alter”. In the experiment with Sprague Dawley rats (AM-251 3.2 μg in the absence of morphine on days 6-10), the “effect on basal nociceptive response” value is “no effect”. For the same molecule, the “effect on the increase in morphine ED50 values” in the experiment on Sprague Dawley rats (AM-251 (1.6 μg or 3.2 μg) co-administered with i.t. morphine for 5 days) is “completely blocked the increase in ED50 values”. Moreover, the “effect on the increase in morphine ED50 value” in the experiment on Sprague Dawley rats (acute paradigm, co-treatment of AM-251 with morphine) is “suppressed the increase in ED50 value”. For the same molecule, the “morphine ED50 value versus saline-only control” value in the experiment with Sprague Dawley rats (acute paradigm, drug without the other drug: single morphine injection then saline, or AM-251 3.2 μg alone) is on record as “did not change”. Besides, the “effect on baseline antinociceptive responses” value in the experiment on Sprague Dawley rats (i.t. injections of AM-251 alone, acute paradigm, either test) is “no effect”. The “morphine ED50 value versus saline-only animals” value in the experiment with Sprague Dawley rats (morphine days 1-5 discontinued, then saline (row morphine) or AM-251 alone (row AM-251) on days 6-10) is reported as “comparable to saline-only”.
For `CN1CC[C@]23c4c5ccc(O)c4O[C@H]2[C@@H](O)C=C[C@H]3[C@H]1C5.O=S(=O)(O)O` [morphine, Morphine sulphate], the “antinociceptive effect on daily injection for 10 days” value with Sprague Dawley rats (daily i.t. morphine (3.2 μg as printed) for 10 days, by day 5) is “progressive decline in morphine antinociception to baseline levels”. Besides, in the experiment with Sprague Dawley rats (setting [3]), the “time by which antinociceptive response returned to baseline” value is no more than 90 min and the “time of maximal antinociceptive response post-injection” value stood at 30 min. In experiment [2] (chronic morphine (20 μM) treatment for 5-days), the “increase in number of CGRP-immunopositive neurons compared to vehicle-treated controls” value is given as “approximately 57%”.
Regarding `C=CCN1CC[C@]23c4c5ccc(O)c4O[C@H]2C(=O)CC[C@@]3(O)[C@H]1C5` [naloxone], the “effect on the morphine-induced increase in CGRP-immunopositive neurons” value in experiment [2] (pre-treatment with naloxone 10 μM, morphine 20 μM) is “blocked”.

The values above are taken from US20080188508A1, “Methods and Therapies for Potentiating a Therapeutic Action of an Opioid Receptor Agonist and Inhibiting and/or Reversing Tolerance to Opioid Receptor Agonists” (priority 2007, published 2008).
